Laboratory results taken from patent US11970474B2, “Substituted benzodiazoles and use thereof in therapy” (THOMAS HELLEDAYS STIFTELSE FÖR MEDICINSK FORSKNING, priority 2018, dated 2024).

Columns and labels:
[1] = system: MOLT4; experiment: Cell viability assay (resazurin); assay type: cell-based; settings: Homo sapiens, MOLT-4, 120 h, Cancer, Acute Lymphoblastic Leukemia, five day incubation
Procedure: (§1) A dilution series of compound or vehicle are transferred to 96-well plates. Cells are seeded into the plate (500-10,000 cells/well) in suitable media and incubated for five days in 5% CO2 at 37° C. Thereafter, resazurin (diluted in suitable medium or PBS) are added to a final concentration 10 μg/ml resazurin at 37° C. for 2-4 hours before measuring the fluorescence (Ex544/Em590), essentially as described (Riss, Terry L. et al., “Cell Viability Assays.” In Assay Guidance Manual, ed. G. Sitta Sittampalam, et al. Bethesda (Md.): Eli Lilly & Company and the National Center for Advancing Translational Sciences (2004) http://www.ncbi.nlm.nih.gov/books/NBK144065/).
(§2) The compounds to be tested are nano-dispensed in duplicate in 11 concentrations, directly in 384-well cell plates, with a final DMSO concentration<1%. Cells are seeded in cell plates, pre-dispensed with compounds (200-2500 cells/well in 50 μl). After three or five days culture in 5% CO2, 37° C., resazurin diluted in PBS is added, 10 μl/well, to a final concentration of 10 μg/ml and cells are incubated 2-4 hours before measuring fluorescence (Ex544/Em590), as described (ibid.). Results obtained for selected example compounds described herein on cancer- and non-transformed cell lines are provided in the table below (Table 3) and summarized in FIG. 1. Where indicated, combination indexes was measured with CompuSyn software (www.compusyn.com) by the method of Chou-Talalay (Chou, Ting-Chao., Cancer Research, 70(2), 440-46 (2010)).

[2] = system: HL-60; experiment: Cell viability assay (resazurin); assay type: cell-based; settings: Homo sapiens, 120 h, Cancer, Acute Promyelocytic Leukemia, five day incubation
Procedure: as §1, §2

[3] = system: MRC5; experiment: Cell viability assay (resazurin); assay type: cell-based; settings: Homo sapiens, 120 h, Normal, fetal lung fibroblast, five day incubation
Procedure: as §1, §2

[4] = system: Jurkat; experiment: Cell viability assay (resazurin); assay type: cell-based; settings: Homo sapiens, 120 h, Cancer, Acute lymphoblastic leukemia, five day incubation
Procedure: as §1, §2

[5] = system: 786-0; experiment: Cell viability assay (resazurin); assay type: cell-based; settings: Homo sapiens, 120 h, Cancer, Renal Cell Adenocarcinoma, five day incubation
Procedure: as §1, §2

[6] = system: HT-29; experiment: Cell viability assay (resazurin); assay type: cell-based; settings: Homo sapiens, 120 h, Cancer, Colorectal Adenocarcinoma, five day incubation
Procedure: as §1, §2

[7] = system: A498; experiment: Cell viability assay (resazurin); assay type: cell-based; settings: Homo sapiens, 120 h, Cancer, Renal carcinoma, five day incubation
Procedure: as §1, §2

[8] = system: MV4-11; experiment: Cell viability assay (resazurin); assay type: cell-based; settings: Homo sapiens, 120 h, Cancer, acute monocytic leukemia, five day incubation
Procedure: as §1, §2

[9] = system: BJ Tert; experiment: Cell viability assay (resazurin); assay type: cell-based; settings: 120 h, Normal, immortalized fibroblast, five day incubation
Procedure: as §1, §2

[10] = system: SW480; experiment: Cell viability assay (resazurin); assay type: cell-based; settings: Homo sapiens, 120 h, Cancer, Colorectal Adenocarcinoma, five day incubation
Procedure: as §1, §2

[11] = system: LCL#1; experiment: Cell viability assay (resazurin); assay type: cell-based; settings: 120 h, Normal, Epstein-Barr-virus-transformed lymphoblastoid cell lines, five day incubation
Procedure: as §1, §2

[12] = system: DU145; experiment: Cell viability assay (resazurin); assay type: cell-based; settings: Homo sapiens, DU-145, 120 h, Cancer, Prostate carcinoma, five day incubation
Procedure: as §1, §2

[13] = system: Reh; experiment: Cell viability assay (resazurin); assay type: cell-based; settings: Homo sapiens, 120 h, Cancer, Acute Lymphocytic Leukemia, five day incubation
Procedure: as §1, §2

[14] = system: T98G; experiment: Cell viability assay (resazurin); assay type: cell-based; settings: Homo sapiens, 120 h, Cancer, Glioblastoma Multiforme, five day incubation
Procedure: as §1, §2

[15] = system: M059K; experiment: Cell viability assay (resazurin); assay type: cell-based; settings: 120 h, Cancer, Malignant Glioblastoma, five day incubation
Procedure: as §1, §2

[16] = system: LCL#2; experiment: Cell viability assay (resazurin); assay type: cell-based; settings: 120 h, Normal, Epstein-Barr-virus-transformed lymphoblastoid cell lines, five day incubation
Procedure: as §1, §2

[17] = system: CCD841; experiment: Cell viability assay (resazurin); assay type: cell-based; settings: CCD-841, 120 h, Normal, fetal epithelial colon, five day incubation
Procedure: as §1, §2

[18] = system: Rec1; experiment: Cell viability assay (resazurin); assay type: cell-based; settings: Homo sapiens, 120 h, Cancer, Mantle Cell Lymphoma, five day incubation
Procedure: as §1, §2

[19] = system: RFX393; experiment: Cell viability assay (resazurin); assay type: cell-based; settings: 120 h, Cancer, Renal cancer cell lines, five day incubation
Procedure: as §1, §2

[20] = system: PC3; experiment: Cell viability assay (resazurin); assay type: cell-based; settings: Homo sapiens, PC-3, 120 h, Cancer, Prostate adenocarcinoma, five day incubation
Procedure: as §1, §2

[21] = system: M059J; experiment: Cell viability assay (resazurin); assay type: cell-based; settings: Homo sapiens, 120 h, Cancer, Malignant Glioblastoma, five day incubation
Procedure: as §1, §2

[22] = system: A549; experiment: Cell viability assay (resazurin); assay type: cell-based; settings: Homo sapiens, 120 h, Cancer, Lung carcinoma, five day incubation
Procedure: as §1, §2

[23] = system: KG1a; experiment: Cell viability assay (resazurin); assay type: cell-based; settings: Homo sapiens, KG-1a, 120 h, Cancer, Acute Myelogenous Leukemia, five day incubation
Procedure: as §1, §2

[24] = system: UO31; experiment: Cell viability assay (resazurin); assay type: cell-based; settings: Homo sapiens, UO-31, 120 h, Cancer, Renal carcinoma, five day incubation
Procedure: as §1, §2

[25] = system: CCRF-CEM; experiment: Cell viability assay (resazurin); assay type: cell-based; settings: Homo sapiens, 120 h, Cancer, Acute Lymphoblastic Leukemia, five day incubation
Procedure: as §1, §2

[26] = system: ACHN; experiment: Cell viability assay (resazurin); assay type: cell-based; settings: Homo sapiens, 120 h, Cancer, Renal Cell Adenocarcinoma, five day incubation
Procedure: as §1, §2

[27] = target: OGG1 (Homo sapiens (Human), UniProt O15527); experiment: In vitro OGG1 activity assay; assay type: biochemical; settings: 800 pM OGG1 enzyme, 2 nM human APEX1, 10 nM 8-oxoA:C substrate
OGG1, sequence (O15527 whole entry): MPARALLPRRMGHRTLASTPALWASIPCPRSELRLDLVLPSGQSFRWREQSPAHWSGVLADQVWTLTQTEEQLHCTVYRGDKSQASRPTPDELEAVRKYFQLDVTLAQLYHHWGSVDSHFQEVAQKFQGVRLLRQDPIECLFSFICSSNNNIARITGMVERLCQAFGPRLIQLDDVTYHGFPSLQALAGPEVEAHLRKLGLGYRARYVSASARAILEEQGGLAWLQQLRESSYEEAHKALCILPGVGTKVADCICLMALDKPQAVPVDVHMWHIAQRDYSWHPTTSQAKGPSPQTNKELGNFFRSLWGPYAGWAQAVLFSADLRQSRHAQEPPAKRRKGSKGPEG
Outline: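 Read-out is fluorescein fluorescence, with compounds in DMSO added first, then enzyme and substrate. OGG1 excises its substrate base from a quenched fluorophore-labelled duplex, and surplus APEX1 cuts the resulting apurinic site. The duplex then melts and fluorescence rises in proportion to glycosylase activity.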

| Compound | EC50 [1] [µM] | EC50 [2] [µM] | EC50 [3] [µM] | EC50 [4] [µM] | EC50 [5] [µM] | EC50 [6] [µM] | EC50 [7] [µM] | EC50 [8] [µM] | EC50 [9] [µM] | EC50 [10] [µM] | EC50 [11] [µM] | EC50 [12] [µM] | EC50 [13] [µM] | EC50 [14] [µM] | EC50 [15] [µM] | EC50 [16] [µM] | EC50 [17] [µM] | EC50 [18] [µM] | EC50 [19] [µM] | EC50 [20] [µM] | further results |
| --- | --- | --- | --- | --- | --- | --- | --- | --- | --- | --- | --- | --- | --- | --- | --- | --- | --- | --- | --- | --- | --- |
| O=C(Nc1ccc(I)cc1)N1CCC(n2c(=O)[nH]c3c(Br)cccc32)CC1 [Example 13, 4-(4-Bromo-2-oxo-2,3-dihydro-1H-1,3-benzodiazol-1-yl)-N-(4-iodophenyl)piperidine-1-carboxamide] | 15 | 22 | 75 | 13 | 30 | 24 | 29 | 9.4 | 34 | 33 | 33 | 13 | 19 | 14 | 20 | 25 | 43 | 14 | 20 | 35 | EC50 [21]: 26 µM; EC50 [22]: 12 µM; EC50 [23]: 16 µM; EC50 [24]: 2.9 µM; EC50 [25]: 15 µM; EC50 [26]: 2.3 µM; IC50 [27]: 0.359 µM |
| Cc1cc(NC(=O)N2CCC(n3c(=O)[nH]c4c(Br)cccc43)CC2)ccc1I [Example 50, 4-(4-Bromo-2-oxo-2,3-dihydro-1H-1,3-benzodiazol-1-yl)-N-(4-iodo-3-methylphenyl)piperidine-1-carboxamide] | 17 | 24 | 47 | 15 | 33 | 22 | 35 | 9.6 | 31 | 30 | 40 | 3.1 | 17 | 17 | 27 | 32 | 54 | 15 | 12 | 29 | EC50 [21]: 29 µM; EC50 [22]: 8.5 µM; EC50 [23]: 19 µM; EC50 [24]: 3.2 µM; EC50 [25]: 7.9 µM; EC50 [26]: 2.8 µM; IC50 [27]: 0.149 µM |
| O=C(Nc1ccc(Cl)c(Cl)c1)N1CCC(n2c(=O)[nH]c3c(-c4ccc(CO)nc4)cccc32)CC1 [Example 28, N-(3,4-dichlorophenyl)-4-{4-[6-(hydroxymethyl)pyridin-3-yl]-2-oxo-2,3-dihydro-1H-1,3-benzodiazol-1-yl}piperidine-1-carboxamide] | 13 | 14 | 21 | 14 | 15 | 23 | 21 | 6.5 | 24 | 20 | 34 | 11 | 15 | 19 | 19 | 41 | 40 | 13 | 14 | 19 | EC50 [21]: 21 µM; EC50 [22]: 11 µM; EC50 [23]: 18 µM; EC50 [24]: 7.1 µM; EC50 [25]: 11 µM; EC50 [26]: 8.5 µM; IC50 [27]: 0.766 µM |
